Measured values from publication PMC11264232, “Are the metal identity and stoichiometry of metal complexes important for colchicine site binding and inhibition of tubulin polymerization?” (Dalton Transactions (Cambridge, England : 2003), 2024).
Several values for one entry are separate records, joined by “and”; a condition that tells them apart may be missing. Equal values may be shown once. Marks after values point to notes of the source that are not given here.

Legend:
[1] = test system: HOP-62; assay: NCI-60 five-dose screen; format: cell-based, human; conditions: Non-Small Cell Lung Cancer
Experimental: (§3) The NCI-60 SRB assay was performed as described previously.[76] GI50 values (the concentration of the metal complex causing 50% growth inhibition), TGI value (the concentration of the complex causing 0% cell growth), and LC50 (the concentration of the complex causing 50% cell death) were interpolated from dose–response curves that were plots of percentage cell growth versus concentration of test compounds.

[2] = test system: HL-60(TB); assay: NCI-60 five-dose screen; format: cell-based, human; conditions: Leukemia
[3] = test system: IGROV1; assay: NCI-60 five-dose screen; format: cell-based, human; conditions: Ovarian cancer
Experimental: as §3

[4] = Cyclic voltammetry in DMSO/nBu4NPF6; format: physicochemical; conditions: scan rate 100 mV s^−1
Experimental: Cyclic voltammetric experiments with 0.5 mM solutions of 1–3 in 0.1 M nBu4NPF6 (puriss quality from Fluka (Schwerte, Germany), dried under reduced pressure at 70 °C for 24 h before use) supporting electrolyte in DMSO (SeccoSolv max. 0.025% H2O, Merck) were performed under argon atmosphere using a three-electrode setup with a platinum disk or a glassy carbon disk working electrode (from Ionode, Australia), platinum wire as a counter electrode, and silver wire as a pseudo reference electrode. All potentials in voltammetric studies were quoted vs. ferricenium/ferrocene (Fc^+/Fc) redox couple. A Heka PG310USB (Lambrecht, Germany) potentiostat with a PotMaster 2.73 software package served for the potential control in voltammetric studies. In situ ultraviolet-visible-near-infrared (UV–Vis–NIR) spectroscopic and spectroelectrochemical measurements were performed on a spectrometer Avantes (Model AvaSpec-2048_14-USB2) in 1 cm quartz cuvette or the spectroelectrochemical cell kit ([…]3) with the Pt-microstructured honeycomb working electrode, purchased from Pine Research Instrumentation (Lyon, France). The cell was positioned in the CUV-UV Cuvette Holder (Ocean Optics, Ostfildern, Germany) connected to the diode-array UV–Vis–NIR spectrometer by optical fibres. UV–Vis–NIR spectra were processed using the AvaSoft 7.7 software package. Halogen and deuterium lamps were used as light sources (Avantes, Model AvaLight-DH-S-BAL, Apeldoorn, The Netherlands). EPR spectra were measured with a X-band cw-EPR spectrometers EMX and EMX plus (Bruker) at room temperature or 100 K. Spectroelectrochemical experiments were performed in a flat cell equipped with a Pt mesh working electrode using nBu4NPF6/DMSO electrolyte. Measurements in frozen solvent glass were done in MeCN/DMF 1 : 1 v/v. Complexes 4 and 5 were dissolved under ambient conditions, and complex 3 was reduced with a stoichiometric equivalent of cobaltocene in a N2 glovebox (N2 < 2 ppm, H2O < 1 ppm). The MeCN/DMF solutions were flash frozen in liquid N2 prior to transfer to the N2 flow cryostat precooled at 100 K inside the cavity of the EPR resonator. EPR spectra were analyzed with the Easyspin toolbox,[75] running on Matlab.

[5] = test system: SF-539; assay: NCI-60 five-dose screen; format: cell-based, human; conditions: CNS cancer
Description: (§4) GI50 values (the concentration of the metal complex causing 50% growth inhibition), TGI value (the concentration of the complex causing 0% cell growth), and LC50 (the concentration of the complex causing 50% cell death) were interpolated from dose–response curves that were plots of percentage cell growth versus concentration of test compounds.

[6] = test system: SK-OV-3; assay: NCI-60 five-dose screen; format: cell-based, human; conditions: Ovarian cancer
Experimental: as §3

[7] = test system: OVCAR-8; assay: NCI-60 five-dose screen; format: cell-based, human; conditions: Ovarian cancer
Experimental: as §3

[8] = test system: HT29; assay: NCI-60 five-dose screen; format: cell-based, human; conditions: Colon cancer
Experimental: as §3

[9] = test system: MCF7; assay: NCI-60 five-dose screen; format: cell-based, human; conditions: Breast cancer
Description: as §4

[10] = test system: LOX IMVI; conditions: Melanoma
Description: (§1) The proligands HL^1–HL^3 and their corresponding metal complexes 1–8 prepared in this study were subjected to evaluation of their anticancer potential, including selectivity towards specific types of cancer: leukemia, non-small cell lung (NSCLC), colon, central nervous system (CNS), melanoma, ovarian, renal, prostate and breast cancers, by the National Cancer Institute's Developmental Therapeutics Program. This evaluation involved the utilization of the NCI 60 human tumor cell line panel.[57] […] The GI50 data in μM are collected in Table 5.
(§2) The NCI-60 SRB assay was performed as described previously.[76]

[11] = test system: SK-MEL-5; conditions: Melanoma
Description: as §1, §2

[12] = test system: SK-MEL-2; conditions: Melanoma
Description: as §1, §2

[13] = test system: UACC-257; conditions: Melanoma
Description: as §1, §2

[14] = test system: SK-MEL-28; conditions: Melanoma
Description: as §1, §2

[15] = test system: M14; conditions: Melanoma
Description: as §1, §2

[16] = test system: MALME-3M; conditions: Melanoma
Description: as §1, §2

[17] = test system: MDA-MB-435; conditions: Melanoma
Description: as §1, §2

[18] = test system: UACC-62; conditions: Melanoma
Description: as §1, §2

[19] = test system: OVCAR-3; assay: NCI-60 five-dose screen; format: cell-based, human; conditions: Ovarian cancer
Experimental: as §3

[20] = test system: HCC-2998; assay: NCI-60 five-dose screen; format: cell-based, human; conditions: Colon cancer
Experimental: as §3

[21] = test system: A549/ATCC; assay: NCI-60 five-dose screen; format: cell-based, human; conditions: Non-Small Cell Lung Cancer
Experimental: as §3

[22] = test system: A549 human lung adenocarcinoma cells; assay: MTT viability assay, 24 h; conditions: read-out: IC50 values A549; A549 cells, 24 h, MTT assay
Experimental: We wanted to compare the cytotoxicity of proligands HL^1–HL^3 and of their Co(III) and Fe(III) complexes 1, 2 and 4, 5 on cell lines originating from the same tissue, so human lung carcinoma A549 cells and lung fibroblast MRC-5 cells were subjected to 24 h treatments.
The biological effects of selected metal complexes (1, 2, 4 and 5) and of their proligands (HL^1, HL^2 and HL^3) were tested more extensively on A549 human lung adenocarcinoma cells and on MRC-5 human lung fibroblast cells. Both cell lines were obtained from ATCC and maintained in DMEM cell culture media containing 1.0 g L^−1 glucose (Biosera, Nuaille, France) complemented with 10% fetal bovine serum (FBS), 2 mM L-glutamine, 0.01% streptomycin and 0.005% penicillin and were cultured under standard conditions in a 37 °C incubator at 5% CO2 and 95% humidity. The viability of A549 and of MRC-5 fibroblast cells upon exposure to the selected metal–ligand complexes and ligands were evaluated by the MTT assay. For this, 10 000 cells per well were seeded into 96-well plates and left to grow. On the next day the cells were exposed to 0, 5, 10, 20, 40 or 80 μM of each compound or to an equivalent volume of DMSO for 24 h. After the treatments, cells were washed with PBS and then were incubated with 0.5 mg mL^−1 MTT reagent (Sigma-Aldrich, St Louis, Missouri, USA) for 1 h at 37 °C. Finally, 100 μL of DMSO (Molar Chemicals, Halásztelek, Hungary) was added to each well, and the absorbance of samples was measured at 570 nm using a Synergy HTX plate reader (BioTek, Winooski, Vermont, USA). The viability measurements were repeated three times using 3 independent biological replicates.

[23] = test system: SN12C; assay: NCI-60 five-dose screen; format: cell-based, human; conditions: Renal cancer
Experimental: as §3

[24] = test system: HOP-92; assay: NCI-60 five-dose screen; format: cell-based, human; conditions: Non-Small Cell Lung Cancer
Experimental: as §3

[25] = test system: NCI-H322M; assay: NCI-60 five-dose screen; format: cell-based, human; conditions: Non-Small Cell Lung Cancer
Experimental: as §3

[26] = test system: T-47D; assay: NCI-60 five-dose screen; format: cell-based, human; conditions: Breast cancer
Experimental: as §3

[27] = test system: DU-145; assay: NCI-60 five-dose screen; format: cell-based, human; conditions: Prostate cancer
Description: as §4

[28] = test system: SR; assay: NCI-60 five-dose screen; format: cell-based, human; conditions: Leukemia
Experimental: as §3

[29] = test system: NCI-H23; assay: NCI-60 five-dose screen; format: cell-based, human; conditions: Non-Small Cell Lung Cancer
Experimental: as §3

[30] = test system: COLO 205; assay: NCI-60 five-dose screen; format: cell-based, human; conditions: Colon cancer
Experimental: as §3

[31] = test system: KM12; assay: NCI-60 five-dose screen; format: cell-based, human; conditions: Colon cancer
Experimental: as §3

[32] = test system: TK-10; assay: NCI-60 five-dose screen; format: cell-based, human; conditions: Renal cancer
Description: as §4

[33] = test system: SNB-75; assay: NCI-60 five-dose screen; format: cell-based, human; conditions: CNS cancer
Experimental: as §3

Work on `CC(=NN=C([S-])Nc1cc(C)c(O)c(C)c1)c1cccc(CN2CCOCC2)n1.CC(=NN=C([S-])Nc1cc(C)c(O)c(C)c1)c1cccc(CN2CCOCC2)n1.O=[N+]([O-])[O-].[Fe+3]` [Complex 4, [Fe^III(L^2)2]NO3] yielded a GI50 [1] of 2970 nM, a GI50 [2] of 1410 nM and a GI50 [3] of 3270 nM. The “1st oxidation potential (peak potential Ep)” value [4] was 0.40^i* volts vs. Fc^+/Fc, the “1st reduction potential (E1/2 or Ep)” value [4] was −0.35^r volts vs. Fc^+/Fc and the “2nd reduction potential (E1/2 or Ep)” value [4] was −1.85^q volts vs. Fc^+/Fc. For the same compound, the GI50 [5] was 1960 nM, the GI50 [6] was 2700 nM and the GI50 [7] was 2500 nM. The GI50 [8] was 7120 nM, the GI50 [9] was 1950 nM and the GI50 [10] was 2340 nM. For the same compound, the GI50 [11] was 1100 nM, the GI50 [12] was 1670 nM and the GI50 [13] was 4340 nM. The GI50 [14] was 2380 nM, the GI50 [15] was 2370 nM and the GI50 [16] was 1930 nM. The GI50 [17] was 2310 nM, the GI50 [18] was 1860 nM and the GI50 [19] was 1990 nM. The GI50 [20] was 2730 nM, the GI50 [21] was 2440 nM and the IC50 [22] was 14000 to 17000 nM and 17000 nM. The GI50 [23] was 2530 nM, the GI50 [24] was 2540 nM and the GI50 [25] was 3260 nM. It also gave a GI50 [26] of 1900 nM, a GI50 [27] of 6290 nM and a GI50 [28] of 2430 nM. It also gave a GI50 [29] of 2230 nM, a GI50 [30] of 1530 nM and a GI50 [31] of 2340 nM. The GI50 [32] was 4130 nM and the GI50 [33] was 1580 nM.
